Tests used:
Assay in all cases: increase in dead-cell fraction, 72 h; higher = more death;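 note: breast cancer cell lines in 384-well plates, stained with Hoechst plus LIVE/DEAD far red dye and imaged, cells above an LDR intensity threshold counted dead, Hoechst-negative corpses included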
Vorinostat = compound: O=C(CCCCCCC(=O)Nc1ccccc1)NO [Vorinostat]
[1] = compound: Cc1nn(C)c(COc2ccc(N3CCN(S(=O)(=O)N(C)C)CC3)cc2)c1-c1cccc2c(CCCOc3cccc4ccccc34)c(C(=O)O)n(CCN3CCOCC3)c12
Ipatasertib/GDC0068 = compound: CC(C)NC[C@@H](C(=O)N1CCN(c2ncnc3c2[C@H](C)C[C@H]3O)CC1)c1ccc(Cl)cc1 [Ipatasertib/GDC0068]
[2] = compound: CO[C@@H](C)Cn1c(=O)n(C)c2cnc3ccc(-c4cncc(C(C)(C)O)c4)cc3c21
R0-3306 = compound: C1=CC2=C(C=CC(=C2)C=C3C(=O)NC(=NCC4=CC=CS4)S3)N=C1 [R0-3306]
Cabozantinib = compound: COc1cc2nccc(Oc3ccc(NC(=O)C4(C(=O)Nc5ccc(F)cc5)CC4)cc3)c2cc1OC [Cabozantinib]
Luminespib/NVP-AUY922 = compound: CCNC(=O)c1noc(-c2cc(C(C)C)c(O)cc2O)c1-c1ccc(CN2CCOCC2)cc1 [Luminespib/NVP-AUY922]
Paclitaxel = compound: CC(=O)O[C@H]1C(=O)[C@@]2(C)[C@H]([C@H](OC(=O)c3ccccc3)[C@]3(O)C[C@H](OC(=O)[C@H](O)[C@@H](NC(=O)c4ccccc4)c4ccccc4)C(C)=C1C3(C)C)[C@]1(OC(C)=O)CO[C@@H]1C[C@@H]2O [Paclitaxel]
Everolimus = compound: CO[C@H]1C[C@@H]2CC[C@@H](C)[C@@](O)(O2)C(=O)C(=O)N2CCCC[C@H]2C(=O)O[C@H]([C@H](C)C[C@@H]2CC[C@@H](OCCO)[C@H](OC)C2)CC(=O)[C@H](C)/C=C(\C)[C@@H](O)[C@@H](OC)C(=O)[C@H](C)C[C@H](C)/C=C/C=C/C=C/1C [Everolimus]
Volasertib/BI6727 = compound: CC[C@@H]1C(=O)N(C)c2cnc(Nc3ccc(C(=O)N[C@H]4CC[C@H](N5CCN(CC6CC6)CC5)CC4)cc3OC)nc2N1C(C)C [Volasertib/BI6727]
Tivantinib/ARQ197 = compound: O=C1NC(=O)[C@@H](c2cn3c4c(cccc24)CCC3)[C@@H]1c1c[nH]c2ccccc12 [Tivantinib/ARQ197]

## AU565
Vorinostat; 0.001 µM
  increase in dead-cell fraction: -0.0016
Vorinostat; 0.003162 µM
  increase in dead-cell fraction: 0.0067
Vorinostat; 0.01 µM
  increase in dead-cell fraction: 0.0043
Vorinostat; 0.03162 µM
  increase in dead-cell fraction: 0.0012
Vorinostat; 0.1 µM
  increase in dead-cell fraction: 0.0011
Vorinostat; 0.3162 µM
  increase in dead-cell fraction: -0.0009
Vorinostat; 1 µM
  increase in dead-cell fraction: 0.0099
Vorinostat; 3.162 µM
  increase in dead-cell fraction: 0.142
Vorinostat; 10 µM
  increase in dead-cell fraction: 0.241
[1]; 0.001 µM
  increase in dead-cell fraction: 0.0054
[1]; 0.003162 µM
  increase in dead-cell fraction: 0.0034
[1]; 0.01 µM
  increase in dead-cell fraction: 0.0061
[1]; 0.03162 µM
  increase in dead-cell fraction: 0.0001
[1]; 0.1 µM
  increase in dead-cell fraction: 0.0007
[1]; 0.3162 µM
  increase in dead-cell fraction: -0.0037
[1]; 1 µM
  increase in dead-cell fraction: 0.0003
[1]; 3.162 µM
  increase in dead-cell fraction: 0.0012
[1]; 10 µM
  increase in dead-cell fraction: 0.0111
Ipatasertib/GDC0068; 0.001 µM
  increase in dead-cell fraction: 0.0001
Ipatasertib/GDC0068; 0.003162 µM
  increase in dead-cell fraction: 0.0023
Ipatasertib/GDC0068; 0.01 µM
  increase in dead-cell fraction: -0.0023
Ipatasertib/GDC0068; 0.03162 µM
  increase in dead-cell fraction: -0.0006
Ipatasertib/GDC0068; 0.1 µM
  increase in dead-cell fraction: 0.0018
Ipatasertib/GDC0068; 0.3162 µM
  increase in dead-cell fraction: 0.0082
Ipatasertib/GDC0068; 1 µM
  increase in dead-cell fraction: 0.0032
Ipatasertib/GDC0068; 3.162 µM
  increase in dead-cell fraction: 0.0084
Ipatasertib/GDC0068; 10 µM
  increase in dead-cell fraction: 0.0293
[2]; 0.001 µM
  increase in dead-cell fraction: 0.0299
[2]; 0.003162 µM
  increase in dead-cell fraction: 0.0425
[2]; 0.01 µM
  increase in dead-cell fraction: 0.0372
[2]; 0.03162 µM
  increase in dead-cell fraction: 0.0503
[2]; 0.1 µM
  increase in dead-cell fraction: 0.0586
[2]; 0.3162 µM
  increase in dead-cell fraction: 0.0998
[2]; 1 µM
  increase in dead-cell fraction: 0.074
[2]; 3.162 µM
  increase in dead-cell fraction: 0.091
[2]; 10 µM
  increase in dead-cell fraction: 0.511
R0-3306; 0.001 µM
  increase in dead-cell fraction: -0.0007
R0-3306; 0.003162 µM
  increase in dead-cell fraction: 0.0211
R0-3306; 0.01 µM
  increase in dead-cell fraction: 0.0272
R0-3306; 0.03162 µM
  increase in dead-cell fraction: 0.005
R0-3306; 0.1 µM
  increase in dead-cell fraction: 0.0121
R0-3306; 0.3162 µM
  increase in dead-cell fraction: 0.0139
R0-3306; 1 µM
  increase in dead-cell fraction: 0.0267
R0-3306; 3.162 µM
  increase in dead-cell fraction: 0.0545
R0-3306; 10 µM
  increase in dead-cell fraction: 0.329
Cabozantinib; 0.001 µM
  increase in dead-cell fraction: 0.0017
Cabozantinib; 0.003162 µM
  increase in dead-cell fraction: 0.0057
Cabozantinib; 0.01 µM
  increase in dead-cell fraction: 0.0018
Cabozantinib; 0.03162 µM
  increase in dead-cell fraction: -0.0008
Cabozantinib; 0.1 µM
  increase in dead-cell fraction: -0.003
Cabozantinib; 0.3162 µM
  increase in dead-cell fraction: 0.0025
Cabozantinib; 1 µM
  increase in dead-cell fraction: 0.0028
Cabozantinib; 3.162 µM
  increase in dead-cell fraction: -0.0021
Cabozantinib; 10 µM
  increase in dead-cell fraction: 0.0274
Luminespib/NVP-AUY922; 0.0001 µM
  increase in dead-cell fraction: -0.0018
Luminespib/NVP-AUY922; 0.0003162 µM
  increase in dead-cell fraction: -0.0005
Luminespib/NVP-AUY922; 0.001 µM
  increase in dead-cell fraction: -0.0013
Luminespib/NVP-AUY922; 0.003162 µM
  increase in dead-cell fraction: 0.0017
Luminespib/NVP-AUY922; 0.01 µM
  increase in dead-cell fraction: 0.0215
Luminespib/NVP-AUY922; 0.03162 µM
  increase in dead-cell fraction: 0.03
Luminespib/NVP-AUY922; 0.1 µM
  increase in dead-cell fraction: 0.0462
Luminespib/NVP-AUY922; 0.3162 µM
  increase in dead-cell fraction: 0.0389
Luminespib/NVP-AUY922; 1 µM
  increase in dead-cell fraction: 0.0492
Paclitaxel; 0.0001 µM
  increase in dead-cell fraction: 0.0067
Paclitaxel; 0.0003162 µM
  increase in dead-cell fraction: 0.0015
Paclitaxel; 0.001 µM
  increase in dead-cell fraction: 0.0164
Paclitaxel; 0.003162 µM
  increase in dead-cell fraction: 0.226
Paclitaxel; 0.01 µM
  increase in dead-cell fraction: 0.312
Paclitaxel; 0.03162 µM
  increase in dead-cell fraction: 0.333
Paclitaxel; 0.1 µM
  increase in dead-cell fraction: 0.324
Paclitaxel; 0.3162 µM
  increase in dead-cell fraction: 0.278
Paclitaxel; 1 µM
  increase in dead-cell fraction: 0.303
Everolimus; 0.001 µM
  increase in dead-cell fraction: 0.0191
Everolimus; 0.003162 µM
  increase in dead-cell fraction: 0.0225
Everolimus; 0.01 µM
  increase in dead-cell fraction: 0.0257
Everolimus; 0.03162 µM
  increase in dead-cell fraction: 0.0132
Everolimus; 0.1 µM
  increase in dead-cell fraction: 0.0177
Everolimus; 0.3162 µM
  increase in dead-cell fraction: 0.0133
Everolimus; 1 µM
  increase in dead-cell fraction: 0.011
Everolimus; 3.162 µM
  increase in dead-cell fraction: 0.019
Everolimus; 10 µM
  increase in dead-cell fraction: 0.0283
Volasertib/BI6727; 0.0001 µM
  increase in dead-cell fraction: -0.0025
Volasertib/BI6727; 0.0003162 µM
  increase in dead-cell fraction: 0.0017
Volasertib/BI6727; 0.001 µM
  increase in dead-cell fraction: -0.0005
Volasertib/BI6727; 0.003162 µM
  increase in dead-cell fraction: 0.0085
Volasertib/BI6727; 0.01 µM
  increase in dead-cell fraction: 0.284
Volasertib/BI6727; 0.03162 µM
  increase in dead-cell fraction: 0.353
Volasertib/BI6727; 0.1 µM
  increase in dead-cell fraction: 0.412
Volasertib/BI6727; 0.3162 µM
  increase in dead-cell fraction: 0.353
Volasertib/BI6727; 1 µM
  increase in dead-cell fraction: 0.152
Tivantinib/ARQ197; 0.001 µM
  increase in dead-cell fraction: -0.0007
Tivantinib/ARQ197; 0.003162 µM
  increase in dead-cell fraction: -0.0033
Tivantinib/ARQ197; 0.01 µM
  increase in dead-cell fraction: -0.0012
Tivantinib/ARQ197; 0.03162 µM
  increase in dead-cell fraction: -0.0029
Tivantinib/ARQ197; 0.1 µM
  increase in dead-cell fraction: 0.0087
Tivantinib/ARQ197; 0.3162 µM
  increase in dead-cell fraction: 0.0601
Tivantinib/ARQ197; 1 µM
  increase in dead-cell fraction: 0.263
Tivantinib/ARQ197; 3.162 µM
  increase in dead-cell fraction: 0.306
Tivantinib/ARQ197; 10 µM
  increase in dead-cell fraction: 0.3

Reference: the supplement of paper PMC9663587
